Assay results taken from patent publication US20240199546A1, “INHIBITORS OF SOLUTE CARRIER FAMILY 6A MEMBER 19 (SLC6A19) AND METHODS OF USE THEREOF” (Maze Therapeutics, Inc., priority 2022, published 2024).

Columns and labels:
human SLC6A19 and TMEM27 [1] = target: T1, human SLC6A19 and TMEM27 (Homo sapiens, UniProt Q695T7); experiment: 13C6,15N-isoleucine uptake in CHO cells with doxycycline-inducible expression of human SLC6A19 and TMEM27, RapidFire mass spectrometry (Example B-2); type: cell-based; conditions: read-out: SLC6A19_RapidFire Uptake Assay IC50
T1 construct: expressed in transfected cells
T1 sequence (Q695T7 1-634): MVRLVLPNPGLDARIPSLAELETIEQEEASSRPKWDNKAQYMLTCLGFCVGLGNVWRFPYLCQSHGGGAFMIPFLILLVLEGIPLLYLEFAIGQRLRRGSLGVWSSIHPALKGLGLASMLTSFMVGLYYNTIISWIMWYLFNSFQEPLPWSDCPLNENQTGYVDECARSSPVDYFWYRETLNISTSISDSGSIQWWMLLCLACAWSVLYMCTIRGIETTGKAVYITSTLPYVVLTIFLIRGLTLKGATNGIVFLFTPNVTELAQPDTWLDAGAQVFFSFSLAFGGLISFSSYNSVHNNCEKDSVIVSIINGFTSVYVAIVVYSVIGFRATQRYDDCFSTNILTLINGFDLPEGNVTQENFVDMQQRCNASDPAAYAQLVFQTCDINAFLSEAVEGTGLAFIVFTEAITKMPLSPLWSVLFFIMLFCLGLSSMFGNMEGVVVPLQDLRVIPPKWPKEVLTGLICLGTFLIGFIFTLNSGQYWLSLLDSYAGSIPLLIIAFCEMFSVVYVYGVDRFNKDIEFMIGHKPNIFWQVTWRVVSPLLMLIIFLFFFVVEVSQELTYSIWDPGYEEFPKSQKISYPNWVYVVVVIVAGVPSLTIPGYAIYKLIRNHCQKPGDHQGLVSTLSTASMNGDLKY
T1 sequence (Q9HBJ8 15-222 partner): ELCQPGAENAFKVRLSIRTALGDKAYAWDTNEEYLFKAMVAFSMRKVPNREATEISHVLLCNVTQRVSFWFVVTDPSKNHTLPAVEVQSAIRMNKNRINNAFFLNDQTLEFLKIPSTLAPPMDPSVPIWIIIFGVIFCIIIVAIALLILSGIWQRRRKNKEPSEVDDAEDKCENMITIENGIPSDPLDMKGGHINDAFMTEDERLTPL
In short: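 Read-out is RapidFire mass-spec peak area of 13C6,15N-isoleucine taken up over 20 min at 37 °C, after 20 min compound pre-exposure in pH 7.2 HEPES-buffered saline. Cells: doxycycline-induced CHO co-expressing human SLC6A19 and TMEM27; compounds as duplicate 10-point 2-fold dilutions, positive control setting 0% activity.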

human SLC6A19 and TMEM27 [2] = target: T1, human SLC6A19 and TMEM27; experiment: Radiolabelled (3H) leucine uptake in CHO cells with doxycycline-inducible expression of human SLC6A19 and TMEM27 (Example B-1); type: cell-based; conditions: CHO cells with doxycycline-inducible expression of human SLC6A19 and TMEM27, read-out: SLC6A19_Radioligand Uptake Assay IC50
In short: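 CHO cells were induced with doxycycline for 18 h at 37 °C, washed in HBSS, then exposed to compounds for 1 h: 8-point, 3-fold dilutions in duplicate, 0.5% DMSO final. Uptake measured by scintillation counting after 2 h shaking. Activity normalized with positive control as 0% and DMSO as 100%.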

| IC50 (human SLC6A19 and TMEM27 [1]) | IC50 (human SLC6A19 and TMEM27 [2]) | Compound |
| --- | --- | --- |
| 45 nM | 149 nM | O=C(NCc1cc2cc(Cl)c(OCc3cscn3)cc2[nH]1)N1CCCC1 [Compound 82, N-((5-chloro-6-(thiazol-4-ylmethoxy)-1H-indol-2-yl)methyl)pyrrolidine-1-carboxamide] |
| 27.5 nM | 69.4 nM | CC(=O)NCc1cc2cc(Cl)c(OCc3cc(C)no3)cc2[nH]1 [Compound 218, N-((5-chloro-6-((3-methylisoxazol-5-yl)methoxy)-1H-indol-2-yl)methyl)acetamide] |
| 504 nM | 419 nM | CC1(C(=O)NCc2cc3cc(Cl)c(OCc4ccc(F)nc4)cc3[nH]2)CC1 [Compound 31, N-((5-chloro-6-((6-fluoropyridin-3-yl)methoxy)-1H-indol-2-yl)methyl)-1-methylcyclopropane-1-carboxamide] |
| 31 nM | 154 nM | Cc1cc(CCc2cc3[nH]c(CNC(=O)C4(C)CC4)cc3cc2Cl)no1 [Compound 148] |
| 66.7 nM | 317 nM | O=C(NCc1cc2cc(Cl)c(OCc3ccccn3)cc2[nH]1)C1CC1 [Compound 503, N-((5-chloro-6-(pyridin-2-ylmethoxy)-1H-indol-2-yl)methyl)cyclopropanecarboxamide] |
| 570 nM | 400 nM | CC1(C(=O)NCc2cc3cc(F)c(NCc4ccon4)cc3[nH]2)CC1 [Compound 524, N-((5-fluoro-6-((isoxazol-3-ylmethyl)amino)-1H-indol-2-yl)methyl)-1-methylcyclopropane-1-carboxamide] |
| 172 nM | 347 nM | Cn1ncc(COc2cc3[nH]c(CNC(=O)N4CCCC4)cc3cc2Cl)n1 [Compound 406, N-((5-chloro-6-((2-methyl-2H-1,2,3-triazol-4-yl)methoxy)-1H-indol-2-yl)methyl)pyrrolidine-1-carboxamide] |
| 117 nM | 130 nM | CNC(=O)NCc1cc2cc(Cl)c(OCc3cscn3)cc2[nH]1 [Compound 209, 1-((5-chloro-6-(thiazol-4-ylmethoxy)-1H-indol-2-yl)methyl)-3-methylurea] |
| 1140 nM | 1440 nM | CC(C)(C)C(=O)NCc1cc2cc(Cl)c(OCc3ccon3)cc2[nH]1 [Compound 493, N-((5-chloro-6-(isoxazol-3-ylmethoxy)-1H-indol-2-yl)methyl)pivalamide] |
| 217 nM | 351 nM | Cc1coc(COc2cc3[nH]c(CNC(=O)N4CCCC4)cc3cc2Cl)n1 [Compound 426, N-((5-chloro-6-((4-methyloxazol-2-yl)methoxy)-1H-indol-2-yl)methyl)pyrrolidine-1-carboxamide] |
| 909 nM | 421 nM | CC1(C(=O)NCc2cc3ccc(OCc4cc(C(F)F)on4)cc3[nH]2)CC1 [Compound 97, N-((6-((5-(difluoromethyl)isoxazol-3-yl)methoxy)-1H-indol-2-yl)methyl)-1-methylcyclopropane-1-carboxamide] |
| 194 nM | 273 nM | CC1(C(=O)NCc2cc3cc(C4CC4)c(OCc4cscn4)cc3[nH]2)CC1 [Compound 341, N-((5-cyclopropyl-6-(thiazol-4-ylmethoxy)-1H-indol-2-yl)methyl)-1-methylcyclopropane-1-carboxamide] |
| 62 nM | 117 nM | Cc1cnc(COc2cc3[nH]c(CNC(=O)C4(C)CC4)cc3cc2Cl)o1 [Compound 70, N-((5-chloro-6-((5-methyloxazol-2-yl)methoxy)-1H-indol-2-yl)methyl)-1-methylcyclopropane-1-carboxamide] |
| 221 nM | 172 nM | CC1(C(=O)NCc2cc3ccc(OCc4cccc(F)n4)cc3[nH]2)CC1 [Compound 33, N-((6-((6-fluoropyridin-2-yl)methoxy)-1H-indol-2-yl)methyl)-1-methylcyclopropane-1-carboxamide] |
| 123 nM | 167 nM | CC1(C(=O)NCc2cc3cc(F)c(OCc4ccccn4)cc3[nH]2)CC1 [Compound 330, N-((5-fluoro-6-(pyridin-2-ylmethoxy)-1H-indol-2-yl)methyl)-1-methylcyclopropane-1-carboxamide] |
| 91 nM | 78 nM | CC1(C(=O)NCc2cc3cc(Cl)c(OCc4cscn4)c(F)c3[nH]2)CC1 [Compound 18, N-((5-chloro-7-fluoro-6-(thiazol-4-ylmethoxy)-1H-indol-2-yl)methyl)-1-methylcyclopropane-1-carboxamide] |
| 2480 nM | 3160 nM | Cc1cc(COc2c(Cl)cc3cc(CNC(=O)C4(C)CC4)[nH]c3c2Cl)no1 [Compound 343, N-((5,7-dichloro-6-((5-methylisoxazol-3-yl)methoxy)-1H-indol-2-yl)methyl)-1-methylcyclopropane-1-carboxamide] |
| 33 nM | 124 nM | CC1(C(=O)NCc2cc3cc(Cl)c(OCc4ccsc4)cc3[nH]2)CC1 [Compound 25, N-((5-chloro-6-(thiophen-3-ylmethoxy)-1H-indol-2-yl)methyl)-1-methylcyclopropane-1-carboxamide] |
| 294 nM | 185 nM | CC1(C(=O)NCc2cc3ccc(OCCc4ccon4)cc3[nH]2)CC1 [Compound 190, N-((6-(2-(isoxazol-3-yl)ethoxy)-1H-indol-2-yl)methyl)-1-methylcyclopropane-1-carboxamide] |
| > 19300 nM | 2990 nM | CC(=O)NCc1cc2cc(F)c(OCc3coc(C)n3)cc2[nH]1 [Compound 236, N-((5-fluoro-6-((2-methyloxazol-4-yl)methoxy)-1H-indol-2-yl)methyl)acetamide] |
| 275 nM | 307 nM | CC1(C(=O)NCc2cc3cc(Cl)c(OCc4cncs4)cc3[nH]2)CC1 [Compound 177, N-((5-chloro-6-(thiazol-5-ylmethoxy)-1H-indol-2-yl)methyl)-1-methylcyclopropane-1-carboxamide] |
| 166 nM | 149 nM | CC1(C(=O)NCc2cc3cc(Cl)c(OCc4ncccc4F)cc3[nH]2)CC1 [Compound 26, N-((5-chloro-6-((3-fluoropyridin-2-yl)methoxy)-1H-indol-2-yl)methyl)-1-methylcyclopropane-1-carboxamide] |
| 593 nM | 619 nM | O=C(NCc1cc2cc(Cl)c(NCc3ccon3)cc2[nH]1)N1CCC1 [Compound 407, N-((5-chloro-6-((isoxazol-3-ylmethyl)amino)-1H-indol-2-yl)methyl)azetidine-1-carboxamide] |
| 158 nM | 184 nM | O=C(NCc1cc2cc(F)c(OCc3cscn3)cc2[nH]1)N1CCCC1 [Compound 114, N-((5-fluoro-6-(thiazol-4-ylmethoxy)-1H-indol-2-yl)methyl)pyrrolidine-1-carboxamide] |
| 1780 nM | 2130 nM | CC1(C(=O)NCc2cc3cc(F)c(OCc4ccon4)cc3[nH]2)CCC1 [Compound 502, N-((5-fluoro-6-(isoxazol-3-ylmethoxy)-1H-indol-2-yl)methyl)-1-methylcyclobutane-1-carboxamide] |
| 457 nM | 304 nM | CC1(C(=O)NCc2cc3cc(Cl)c(CNc4ccon4)cc3[nH]2)CC1 [Compound 608, N-((5-chloro-6-((isoxazol-3-ylamino)methyl)-1H-indol-2-yl)methyl)-1-methylcyclopropane-1-carboxamide] |
| 117 nM | 119 nM | CC1(C(=O)NCc2cc3ccc(OCc4cnsc4)cc3[nH]2)CC1 [Compound 68, N-((6-(isothiazol-4-ylmethoxy)-1H-indol-2-yl)methyl)-1-methylcyclopropane-1-carboxamide] |
| 217 nM | 313 nM | Cc1nc(COc2cc3[nH]c(CNC(=O)N4CCCC4)cc3cc2Cl)co1 [Compound 411, N-((5-chloro-6-((2-methyloxazol-4-yl)methoxy)-1H-indol-2-yl)methyl)pyrrolidine-1-carboxamide] |
| 30.9 nM | 104 nM | COC(=O)NCc1cc2cc(Cl)c(OCc3cscn3)cc2[nH]1 [Compound 624, methyl ((5-chloro-6-(thiazol-4-ylmethoxy)-1H-indol-2-yl)methyl)carbamate] |
| 281 nM | 339 nM | O=C(NCc1cc2cc(Cl)c(NCc3cscn3)cc2[nH]1)N1CCCC1 [Compound 414, N-((5-chloro-6-((thiazol-4-ylmethyl)amino)-1H-indol-2-yl)methyl)pyrrolidine-1-carboxamide] |
